One experiment concerns the target T1, thromboxane synthetase (Homo sapiens, UniProt P24557).
T1 construct: endogenous in cells; host or cells: human platelets (platelet-rich plasma passed through Sepharose 2B)
T1 sequence (P24557 1-533): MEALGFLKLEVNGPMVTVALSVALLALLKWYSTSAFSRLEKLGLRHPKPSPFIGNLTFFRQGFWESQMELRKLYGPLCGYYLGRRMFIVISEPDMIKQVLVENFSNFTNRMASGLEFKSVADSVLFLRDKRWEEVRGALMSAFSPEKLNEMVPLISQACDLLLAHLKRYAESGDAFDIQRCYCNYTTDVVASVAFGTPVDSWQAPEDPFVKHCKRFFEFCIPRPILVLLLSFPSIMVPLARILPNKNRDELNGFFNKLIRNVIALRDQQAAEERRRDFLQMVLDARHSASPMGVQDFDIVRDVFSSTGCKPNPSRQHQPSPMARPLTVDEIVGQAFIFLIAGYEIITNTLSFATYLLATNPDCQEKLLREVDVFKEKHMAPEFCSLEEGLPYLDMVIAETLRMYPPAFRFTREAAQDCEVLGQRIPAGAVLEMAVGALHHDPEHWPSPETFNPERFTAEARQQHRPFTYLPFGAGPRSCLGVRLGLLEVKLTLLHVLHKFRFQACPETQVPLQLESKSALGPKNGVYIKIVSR
Kind of experiment: Inhibitory effect on thromboxane synthetase (TXB2 formation in human platelet suspension). In kind it is cell-based. Particulars: 10 minutes at ambient temperature, then 14C-labelled arachidonic acid 10 minutes, read-out: Inhibition of thromboxane synthetase IC50. The method, then: Determining the Inhibitory Effect on Thromboxane Synthetase
Venous human blood is anti-coagulated with 13 mM Na3 citrate and centrifuged for 10 minutes at 170×g. The supernatant platelet-rich plasma is passed through a Sepharose 2B column in order to remove the plasma proteins. Aliquots of the platelet suspension obtained are incubated with the test substance or with a solvent as control for 10 minutes at ambient temperature and after the addition of ^14 C-labelled arachidonic acid incubation is continued for a further 10 minutes. After this has been stopped with 50 μl of citric acid, extraction is carried out 3 times with 500 μl of ethyl acetate and the combined extracts are distilled off with nitrogen. The residue is taken up in ethyl acetate, placed on TLC film and separated with chloro-form:methanol:glacial acetic acid:water (90:8:1:0.8, v/v/v/v). The dried TLC films are placed on X-ray film for 3 days, the autoradiograms were developed and the active zones were marked on the film using the autoradiograms. After cutting out, the activity is measured in a scintillation counter and the inhibition of the formation of TXB2 is calculated. The IC50 is determined by linear interpolation.

Another experiment concerns thrombocyte aggregation. The experiment is described as follows: Antithrombotic activity: collagen-induced aggregation in platelet-rich plasma (Born and Cross). In kind it is cell-based. The following applies: Homo sapiens, 10 min; platelet-rich plasma from healthy volunteers; incubated 10 minutes at 37° C.; 50% change in optical density; read-out: Inhibition of collagen-induced aggregation EC50. How it is done:
The thrombocyte aggregation is measured using the method of Born and Cross (J. Physiol. 170, 397 (1964)) in platelet-rich plasma taken from healthy volunteers. To inhibit coagulation, the blood is mixed with 3.14% strength sodium citrate in a ratio by volume of 1:10.
Collagen-induced Aggregation
The pattern of decrease in the optical density of the platelet suspension is photometrically measured and recorded after the addition of the aggregation-triggering substance. The rate of aggregation is concluded from the angle of inclination of the density curve. The point on the curve where there is greatest light transmittance is used to calculate the "optical density".
The quantity of collagen used is as little as possible but sufficient to produce an irreversible reaction curve. Standard commercial collagen produced by Hormonchemie of Munich is used. Before the addition of the collagen the plasma is incubated for 10 minutes with the substance at 37° C.
From the measurements obtained an EC50 is determined by plotting a graph, and indicates a 50% change in the "optical density" in terms of the inhibition of aggregation.

For the next experiment, the target named is T2, Thromboxane (Homo sapiens, UniProt P21731).
T2 construct: endogenous in cells; host or cells: human platelets (platelet-rich plasma passed through Sepharose 2B)
T2 sequence (P21731 1-343): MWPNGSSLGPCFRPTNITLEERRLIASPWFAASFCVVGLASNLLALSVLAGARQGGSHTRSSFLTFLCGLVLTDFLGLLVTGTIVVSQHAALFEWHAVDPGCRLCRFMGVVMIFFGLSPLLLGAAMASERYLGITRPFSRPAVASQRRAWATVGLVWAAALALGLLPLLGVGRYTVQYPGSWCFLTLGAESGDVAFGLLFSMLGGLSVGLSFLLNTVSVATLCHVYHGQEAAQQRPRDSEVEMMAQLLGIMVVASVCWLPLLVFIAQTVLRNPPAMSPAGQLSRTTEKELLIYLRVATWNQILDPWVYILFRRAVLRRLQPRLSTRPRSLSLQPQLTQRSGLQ
The experiment is described as follows: Thromboxane-antagonistic activity (displacement of 3H-labelled ligand on human platelets). Format: binding. The following applies: human platelet suspension, 60 minutes at ambient temperature. How it is done: Thromboxane-antagonistic Activity
Venous human blood is anti-coagulated with 13 mM Na3 citrate and centrifuged for 10 minutes at 170×g. The supernatant platelet-rich plasma is passed through a Sepharose 2B column in order to remove the plasma proteins. Aliquots of the platelet suspension obtained are incubated with the test substance, the ligand (^3 H-labelled) and a marker (^14 C-labelled) for 60 minutes at ambient temperature and then centrifuged for 20 seconds at 10,000×g. The supernatant is removed and the pellet is dissolved in NaOH. The ^3 H activity in the supernatant corresponds to the free ligand, ^14 C gives the concentration of the marker. ^3 H in the pellet corresponds to the bound ligand whilst ^14 C is used to correct for the ligand in the extracellular space. After the process has been repeated, the displacement curve is determined from the binding values for different concentrations of the test substance and the IC50 is determined.

pEC50, pIC50: −log10 of the molar value.

As usually defined, the pIC50 is the negative decadic logarithm of the IC50, by convention in mol/L. Usually pEC50 stands for the negative decadic logarithm of the EC50, by convention in mol/L. As to `CC(C)(C)NC(=NC#N)NCCc1ccc(C(=CCCCC(=O)O)c2cccnc2)cc1` [U, E/Z-6-(4-(2-(2-cyano-3-tert.butyl-guanidino)ethyl)phenyl)-6-(3-pyridyl)hex-5-enoic acid], the figures for the pIC50 at thromboxane synthetase and on Thromboxane were 8.15 and 7.30, respectively. In addition, the pEC50 in the experiment with thrombocyte aggregation is 5.92.
`CC(C)CCNC(Nc1cccc(/C(=C\CCCC(=O)O)c2cccnc2)c1)=C(C#N)C#N` [L, 5E-6-(3-(2,2-dicyano-1-(3-methylbutylamino)ethyleneamino)phenyl)-6-(3-pyridyl)hex-5-enoic acid]: the pIC50 at thromboxane synthetase was 7.51; on Thromboxane, 7.82. Besides, in the experiment on thrombocyte aggregation, the pEC50 is 5.92.
For `CCCNC(Nc1cccc(/C(=C\CCCC(=O)O)c2cccnc2)c1)=C(C#N)C#N` [P, 5E-6-(3-(2,2-dicyano-1-propylamino-ethyleneamino)phenyl)-6-(3-pyridyl)hex-5-enoic acid] the same measures were 7.40, 7.43 and 7.30.
Turning to `CC(C)NC(Nc1cccc(/C(=C\CCCC(=O)O)c2cccnc2)c1)=C(C#N)C#N` [K, 5E-6-(3-(2,2-dicyano-1-isopropylaminoethyleneamino)phenyl)-6-(3-pyridyl)hex-5-enoic acid], the pIC50 is 7.35 at thromboxane synthetase and 8.70 on Thromboxane. Further, in the experiment on thrombocyte aggregation, the pEC50 is 7.70.
`CC(C)(C)NC(=NS(=O)(=O)c1ccccc1)Nc1cccc(/C(=C\CCCC(=O)O)c2cccnc2)c1` [Example V, 5E-6-(3-(3-tert.butyl-2-phenylsulphonyl-guanidino)phenyl)-6-(3-pyridyl)hex-5-enoic acid]: the pIC50 was 8.40 at thromboxane synthetase and 7.26 on Thromboxane. Moreover, in the experiment with thrombocyte aggregation, the pEC50 was 5.52.
With `CC(C)CNC(=NC#N)Nc1cccc(/C(=C\CCCC(=O)O)c2cccnc2)c1` [F, 5E-6-(3-(2-cyano-3-(2-methylpropyl)guanidino)phenyl)-6-(3-pyridyl)hex-5-enoic acid], the pIC50 is 7.52 on thromboxane synthetase and 8.15 on Thromboxane. In addition, the pEC50 with thrombocyte aggregation was 6.46.
With `CC(C)CNC(Nc1cccc(/C(=C\CCCC(=O)O)c2cccnc2)c1)=C(C#N)C(N)=O` [X, 5E-6-(3-(2-carbamoyl-2-cyano-1-(2-methylpropylamino)-ethyleneamino)phenyl)-6-(3-pyridyl)hex-5-enoic acid], the pIC50 at thromboxane synthetase was 8.30; at Thromboxane, 6.42. In addition, the pEC50 in the experiment with thrombocyte aggregation is 4.51.
In the same order, the values of `CC(C)CNC(Nc1cccc(/C(=C\CCCC(=O)O)c2cccnc2)c1)=C(C#N)C#N` [J, 5E-6-(3-(2,2-dicyano-1-(2-methylpropylamino)ethyleneamino)phenyl)-6-(3-pyridyl)hex-5-enoic acid] are 7.52, 8.70 and 6.92.
As to `N#CN=C(Nc1ccc(/C(=C\CCCC(=O)O)c2cccnc2)cc1)NC1CCCCC1` [R, 5E-6-(4-(2-cyano-3-cyclohexyl-guanidino)phenyl)-6-(3-pyridyl)hex-5-enoic acid], the results for the pIC50 on thromboxane synthetase and on Thromboxane were 6.74 and 5.89, respectively. Moreover, the pEC50 in the experiment with thrombocyte aggregation is 4.51.
For `CC(C)CCNC(=NC#N)Nc1cccc(/C(=C\CCCC(=O)O)c2cccnc2)c1` [Example I, 5E-6-(3-(2-cyano-3-(3-methylbutyl)guanidino)phenyl)-6-(3-pyridyl)hex-5-enoic acid] the same measures were 8.52, 7.57 and 6.16.
Turning to `CCCCCNC(=NC#N)Nc1cccc(/C(=C\CCCC(=O)O)c2cccnc2)c1` [H, 5E-6-(3-(2-cyano-3-pentyl-guanidino)phenyl)-6-(3-pyridyl)hex-5-enoic acid], the pIC50 at thromboxane synthetase is 8.30; at Thromboxane it was 7.60. Besides, the pEC50 in the experiment with thrombocyte aggregation is 6.19.
Turning to `CC(C)(C)CNC(=C[N+](=O)[O-])Nc1cccc(/C(=C\CCCC(=O)O)c2cccnc2)c1` [T, 5E-6-(3-(1-neopentylamino-2-nitro-ethyleneamino)phenyl)-6-(3-pyridyl)hex-5-enoic acid], the pIC50 on thromboxane synthetase is 6.54; on Thromboxane it was 6.55. Moreover, in the experiment with thrombocyte aggregation, the pEC50 is 5.02.
Consider `N#CN=C(Nc1cccc(/C(=C\CCCC(=O)O)c2cccnc2)c1)NC1CC1` [A, 5E-6-(3-(2-cyano-3-cyclopropyl-guanidino)phenyl)-6-(3-pyridyl)hex-5-enoicacid], for which the pIC50 is 6.42 at thromboxane synthetase and 7.77 on Thromboxane.
In the case of `N#CN=C(Nc1cccc(/C(=C\CCCn2cnnn2)c2cccnc2)c1)NC1CCCC1` [Y, 4E-1-(5-(3-(2-cyano-3-cyclopentyl-guanidino)phenyl)-5-(3-pyridyl)-pent-4-enyl)tetrazole], the pIC50 at thromboxane synthetase was 6.60; on Thromboxane, 7.68. For the same compound, in the experiment on thrombocyte aggregation, the pEC50 is 5.92.
On to `CC(C)(C)NC(=NC#N)Nc1cccc(/C(=C\CCCC(=O)O)c2cccnc2)c1` [B, 5E-6-(3-(2-cyano-3-tert.butyl-guanidino)phenyl)-6-(3-pyridyl)hex-5-enoic acid], for which, in the experiment on thrombocyte aggregation, the pEC50 is 6.30. At Thromboxane, this compound gave a pIC50 of 7.96.
`N#CC(C#N)=C(Nc1cccc(/C(=C\CCCC(=O)O)c2cccnc2)c1)NC1CCCC1` [M, 5E-6-(3-(2,2-dicyano-1-cyclopentylaminoethyleneamino)-phenyl)-6-(3-pyridyl)hex-5-enoic acid]: the values for the pIC50 on thromboxane synthetase and on Thromboxane were 7.48 and 9.00, respectively. Also, in the experiment on thrombocyte aggregation, the pEC50 is 7.30.
For the compound `N#CC(C#N)=C(Nc1cccc(/C(=C\CCCC(=O)O)c2cccnc2)c1)NC1CC1` [O, 5E-6-(3-(2,2-dicyano-1-cyclopropylaminoethyleneamino)phenyl)-6-(3-pyridyl)hex-5-enoic acid], the pIC50 on thromboxane synthetase is 7.19; at Thromboxane, 7.21. In addition, the negative-log EC50 (pEC50) in the experiment with thrombocyte aggregation is 7.40.
Take `CC(C)(C)NC(Nc1cccc(/C(=C\CCCC(=O)O)c2cccnc2)c1)=C(C#N)C#N` [Q, 5E-6-(3-(2,2-dicyano-1-tert.butylaminoethyleneamino)phenyl)-6-(3-pyridyl)hex-5-enoic acid]: the pIC50 on thromboxane synthetase and at Thromboxane was 7.30 each time. Besides, the pEC50 in the experiment on thrombocyte aggregation is 6.92.
As to `N#CN=C(Nc1cccc(/C(=C\CCCC(=O)O)c2cccnc2)c1)N[C@@H]1C[C@H]2CC[C@@H]1C2` (relative stereo) [E, 5E-6-(3-(2-cyano-3-(exo-norborn-2-yl)guanidino)phenyl)-6-(3-pyridyl)hex-5-enoic acid], the pIC50 was 8.40 at thromboxane synthetase and 7.77 on Thromboxane. The pEC50 in the experiment with thrombocyte aggregation is 6.12.
Consider `CC(C)NC(=NC#N)Nc1cccc(/C(=C\CCCC(=O)O)c2cccnc2)c1` [D, 5E-6-(3-(2-cyano-3-isopropyl-guanidino)phenyl)-6-(3-pyridyl)hex-5-enoic acid], for which the results for the pIC50 at thromboxane synthetase and at Thromboxane were 7.62 and 7.74, respectively.
